Test results reported in PubChem BioAssay (NCI).
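Cultured in 96-well plates, cells were exposed to test compound for 48 hours across five concentrations. GI50 = concentration required for 50% inhibition of growth. Definition used: TGI = concentration required for complete inhibition of growth.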

How the values were obtained:
Experiment in all cases: NCI anticancer screen, dose series, 48 h
NCI-H226 lung = test system: NCI-H226 lung
786-0 renal = test system: 786-0 renal
UACC-62 melanoma = test system: UACC-62 melanoma
MDA-MB-435 = test system: MDA-MB-435
SF-539 CNS = test system: SF-539 CNS
CCRF-CEM leukemia = test system: CCRF-CEM leukemia
COLO 205 colon = test system: COLO 205 colon
HOP-62 NSCLC = test system: HOP-62 NSCLC
SNB-19 CNS = test system: SNB-19 CNS
MALME-3M melanoma = test system: MALME-3M melanoma

Row | SMILES | GI50 (NCI-H226 lung) [µM] | TGI (NCI-H226 lung) [µM] | GI50 (786-0 renal) [µM] | TGI (786-0 renal) [µM] | GI50 (UACC-62 melanoma) [µM] | TGI (UACC-62 melanoma) [µM] | GI50 (MDA-MB-435) [µM] | TGI (MDA-MB-435) [µM] | GI50 (SF-539 CNS) [µM] | TGI (SF-539 CNS) [µM] | GI50 (CCRF-CEM leukemia) [µM] | TGI (CCRF-CEM leukemia) [µM] | GI50 (COLO 205 colon) [µM] | TGI (COLO 205 colon) [µM] | GI50 (HOP-62 NSCLC) [µM] | TGI (HOP-62 NSCLC) [µM] | GI50 (SNB-19 CNS) [µM] | TGI (SNB-19 CNS) [µM] | GI50 (MALME-3M melanoma) [µM] | TGI (MALME-3M melanoma) [µM]
1 | O=C(Oc1ccc(Cl)cc1)c1ccccc1Nc1ccnc(C(F)(F)F)c1 | 2.94 | 16.8 | 2.71 | 9.75 | 2.61 | 8.44 | 2.15 | 4.87 | 15 | 32.7 | 4.94 | 52.8 | – | – | – | – | – | – | – | –
2 | COC[C@H]1Cn2cc(-c3nc(Nc4ccnn4C)ncc3C)nc2C(=O)N1Cc1ccc(F)c(F)c1 | 25.8 | > 100 | 88 | > 100 | 0.0228 | > 100 | 0.186 | > 100 | 27.1 | > 100 | 29.3 | > 100 | 0.0203 | > 100 | 1.15 | > 100 | > 100 | > 100 | – | –
3 | Cc1ccc(-n2c3nc(=O)[nH]c(=O)c-3cc3cc([N+](=O)[O-])ccc32)cc1 | 24.6 | 86 | 10.3 | 29.5 | 12.1 | 29.8 | 4.01 | 17.7 | 13.9 | 40.8 | 4.67 | > 100 | 15.6 | 41.6 | 2.57 | 11.8 | 17.3 | 74 | – | –
4 | CC(C)=CCC(O)C1=CC(=O)c2c(O)ccc(O)c2C1=O (stereo unspecified) | – | 2.3 | – | 1.5 | – | 3.41 | – | 2.82 | – | 3.01 | – | 0.399 | – | 0.357 | – | 4.95 | – | 7.78 | – | –
5 | C[C@]12CCC3c4ccc(O)cc4CCC3C1CC[C@@]2(O)CNC(=O)/C=C/c1ccc(O)c(O)c1 (stereo partly specified) | 15.4 | 33.1 | 11.4 | 24.9 | 5.22 | 17 | 3.01 | 8.07 | 5.1 | 18 | 4.33 | 31.2 | 3.55 | 10.4 | 6.78 | 22.6 | 10.6 | 23.8 | – | –
6 | COCCOc1ccc(-c2nc3ccc(-c4nc5ccc(N6CCN(C)CC6)cc5[nH]4)cc3[nH]2)cc1 | – | – | 1.64 | 3.81 | 0.365 | 2.02 | 0.621 | 2.14 | 1.22 | 2.83 | 1.02 | > 100 | 0.371 | 3.05 | 1.56 | 14.5 | 1.87 | 10.5 | 0.165 | 1.55
7 | Cc1csc(-c2nnc(Nc3ccc(Oc4ncccc4-c4ccnc(N)n4)cc3)c3ccccc23)c1 | > 63.8 | > 100 | > 100 | > 100 | 0.767 | > 100 | 2.45 | > 100 | > 100 | > 100 | 0.234 | > 100 | – | – | 4.4 | > 100 | > 100 | > 100 | 1.9 | > 100
